Laboratory results: ChEMBL document CHEMBL5030565, “Stapled Peptides Targeting SARS-CoV-2 Spike Protein HR1 Inhibit the Fusion of Virus to Its Cell Receptor” (J Med Chem, 2021)
pEC50: −log10 of the molar value.

Assays:
SARS-CoV-2 [1] = assay: Antiviral activity against SARS-CoV-2 infected in Vero E6 cells assessed as reduction in viral replication at 12.5 uM preincubated for 30 mins followed by viral infection measured after 72 hrs by crystal violet staining based plaque assay; format: functional, Severe acute respiratory syndrome coronavirus 2; parameters: scale not given: the % may be the effect or the level left
SARS-CoV-2 [2] = assay: Antiviral activity against pseudotyped SARS-CoV-2 infected in Huh7 cells expressing hACE2 at 10 uM preincubated for 1 hr followed by cell infection measured after 2 days by bright-Glo luciferase assay; format: functional, Severe acute respiratory syndrome coronavirus 2, Huh-7; settings: time 49 hrs
SARS-CoV-2 [3] = assay: Antiviral activity against pseudotyped SARS-CoV-2 infected in Huh7 cells expressing hACE2 preincubated for 1 hr followed by cell infection measured after 2 days by bright-Glo luciferase assay; format: functional, organism-based; settings: Severe acute respiratory syndrome coronavirus 2, Huh-7

| Structure (SMILES) | Activity (SARS-CoV-2 [1]) [%] | Activity (SARS-CoV-2 [2]) [%] | pEC50 (SARS-CoV-2 [3]) |
| --- | --- | --- | --- |
| CC[C@H](C)[C@H](NC(=O)CNC(=O)[C@H](CO)NC(=O)[C@@H](NC(=O)[C@H](CC(=O)O)NC(C)=O)[C@@H](C)CC)C(=O)N[C@@H](CC(N)=O)C(=O)N[C@@H](C)C(=O)N[C@@H](CO)C(=O)N[C@H](C(=O)N[C@H](C(=O)N[C@@H](CC(N)=O)C(=O)N[C@H](C(=O)N[C@@]1(C)CCC/C=C\CCC[C@@](C)(C(=O)N[C@@H](CCCNC(=N)N)C(=O)N[C@@H](CC(C)C)C(=O)N[C@@H](CC(N)=O)C(=O)N[C@@H](CCC(=O)O)C(=O)N[C@H](C(=O)N[C@@H](C)C(=O)N[C@@H](CCCCN)C(=O)N[C@@H](CC(N)=O)C(=O)N[C@@H](CC(C)C)C(=O)N[C@@H](CC(N)=O)C(=O)N[C@@H](CCC(=O)O)C(=O)N[C@@H](CO)C(=O)N[C@@H](CC(C)C)C(=O)N[C@H](C(=O)N[C@@H](CC(=O)O)C(=O)N[C@@H](CC(C)C)C(=O)N[C@@H](CCC(N)=O)C(=O)N[C@@H](CCC(=O)O)C(=O)N[C@@H](CC(C)C)C(N)=O)[C@@H](C)CC)C(C)C)NC(=O)[C@H]([C@@H](C)CC)NC(=O)[C@H](CCC(=O)O)NC(=O)[C@H](CCCCN)NC1=O)[C@@H](C)CC)C(C)C)C(C)C | 35 | 47.6 | – |
| CC[C@H](C)[C@H](NC(=O)CNC(=O)[C@H](CO)NC(=O)[C@@H](NC(=O)[C@H](CC(=O)O)NC(C)=O)[C@@H](C)CC)C(=O)N[C@@H](CC(N)=O)C(=O)N[C@@H](C)C(=O)N[C@@H](CO)C(=O)N[C@H](C(=O)N[C@H](C(=O)N[C@@H](CC(N)=O)C(=O)N[C@H](C(=O)N[C@@H](CCC(N)=O)C(=O)N[C@@H](CCCCN)C(=O)N[C@@H](CCC(=O)O)C(=O)NC1(C)CCC/C=C\CCCC(C)(C(=O)NC(CCC(=O)O)C(=O)N[C@H](C(=O)N[C@@H](C)C(=O)N[C@@H](CCCCN)C(=O)N[C@@H](CC(N)=O)C(=O)N[C@@H](CC(C)C)C(=O)N[C@@H](CC(N)=O)C(=O)N[C@@H](CCC(=O)O)C(=O)N[C@@H](CO)C(=O)N[C@@H](CC(C)C)C(=O)N[C@H](C(=O)N[C@@H](CC(=O)O)C(=O)N[C@@H](CC(C)C)C(=O)N[C@@H](CCC(N)=O)C(=O)N[C@@H](CCC(=O)O)C(=O)N[C@@H](CC(C)C)C(N)=O)[C@@H](C)CC)C(C)C)NC(=O)[C@H](CC(C)C)NC(=O)[C@H](CCCNC(=N)N)NC(=O)[C@H](CC(=O)O)NC1=O)[C@@H](C)CC)C(C)C)C(C)C (stereo not given in full) | 25 | 50.8 | 4.83 |
| CC[C@H](C)[C@H](NC(=O)CNC(=O)[C@H](CO)NC(=O)[C@@H](NC(=O)[C@H](CC(=O)O)NC(C)=O)[C@@H](C)CC)C(=O)N[C@@H](CC(N)=O)C(=O)N[C@@H](C)C(=O)N[C@@H](CO)C(=O)N[C@H](C(=O)N[C@H](C(=O)N[C@@H](CC(N)=O)C(=O)N[C@H](C(=O)N[C@@H](CCC(N)=O)C(=O)N[C@@]1(C)CCC/N=C\CCC[C@@](C)(C(=O)N[C@@H](CC(C)C)C(=O)N[C@@H](CC(N)=O)C(=O)N[C@@H](CCC(=O)O)C(=O)N[C@H](C(=O)N[C@@H](C)C(=O)N[C@@H](CCCCN)C(=O)N[C@@H](CC(N)=O)C(=O)N[C@@H](CC(C)C)C(=O)N[C@@H](CC(N)=O)C(=O)N[C@@H](CCC(=O)O)C(=O)N[C@@H](CO)C(=O)N[C@@H](CC(C)C)C(=O)N[C@H](C(=O)N[C@@H](CC(=O)O)C(=O)N[C@@H](CC(C)C)C(=O)N[C@@H](CCC(N)=O)C(=O)N[C@@H](CCC(=O)O)C(=O)N[C@@H](CC(C)C)C(N)=O)[C@@H](C)CC)C(C)C)NC(=O)[C@H](CC(=O)O)NC(=O)[C@H]([C@@H](C)CC)NC(=O)[C@H](CCC(=O)O)NC1=O)[C@@H](C)CC)C(C)C)C(C)C | 28.5 | 16.1 | – |
| CC[C@H](C)[C@H](NC(=O)CNC(=O)[C@H](CO)NC(=O)[C@@H](NC(=O)[C@H](CC(=O)O)NC(C)=O)[C@@H](C)CC)C(=O)N[C@@H](CC(N)=O)C(=O)N[C@@H](C)C(=O)N[C@@H](CO)C(=O)N[C@H](C(=O)N[C@H](C(=O)N[C@@H](CC(N)=O)C(=O)N[C@H](C(=O)N[C@@H](CCC(N)=O)C(=O)N[C@@H](CCCCN)C(=O)N[C@@H](CCC(=O)O)C(=O)N[C@H](C(=O)N[C@@H](CC(=O)O)C(=O)N[C@@]1(C)CCC/C=C\CCC[C@@](C)(C(=O)N[C@@H](C)C(=O)N[C@@H](CCCCN)C(=O)N[C@@H](CC(N)=O)C(=O)N[C@@H](CC(C)C)C(=O)N[C@@H](CC(N)=O)C(=O)N[C@@H](CCC(=O)O)C(=O)N[C@@H](CO)C(=O)N[C@@H](CC(C)C)C(=O)N[C@H](C(=O)N[C@@H](CC(=O)O)C(=O)N[C@@H](CC(C)C)C(=O)N[C@@H](CCC(N)=O)C(=O)N[C@@H](CCC(=O)O)C(=O)N[C@@H](CC(C)C)C(N)=O)[C@@H](C)CC)NC(=O)[C@H](CCC(=O)O)NC(=O)[C@H](CC(N)=O)NC(=O)[C@H](CC(C)C)NC1=O)[C@@H](C)CC)[C@@H](C)CC)C(C)C)C(C)C | 41 | 36.8 | – |
| CC[C@H](C)[C@H](NC(=O)CNC(=O)[C@H](CO)NC(=O)[C@@H](NC(=O)[C@H](CC(=O)O)NC(C)=O)[C@@H](C)CC)C(=O)N[C@@H](CC(N)=O)C(=O)N[C@@H](C)C(=O)N[C@@H](CO)C(=O)N[C@H](C(=O)N[C@H](C(=O)N[C@@H](CC(N)=O)C(=O)N[C@H](C(=O)N[C@@H](CCC(N)=O)C(=O)N[C@@H](CCCCN)C(=O)N[C@@H](CCC(=O)O)C(=O)N[C@H](C(=O)N[C@@]1(C)CCC/C=C\CCC[C@@](C)(C(=O)N[C@H](C(=O)N[C@@H](C)C(=O)N[C@@H](CCCCN)C(=O)N[C@@H](CC(N)=O)C(=O)N[C@@H](CC(C)C)C(=O)N[C@@H](CC(N)=O)C(=O)N[C@@H](CCC(=O)O)C(=O)N[C@@H](CO)C(=O)N[C@@H](CC(C)C)C(=O)N[C@H](C(=O)N[C@@H](CC(=O)O)C(=O)N[C@@H](CC(C)C)C(=O)N[C@@H](CCC(N)=O)C(=O)N[C@@H](CCC(=O)O)C(=O)N[C@@H](CC(C)C)C(N)=O)[C@@H](C)CC)C(C)C)NC(=O)[C@H](CC(N)=O)NC(=O)[C@H](CC(C)C)NC(=O)[C@H](CCCNC(=N)N)NC1=O)[C@@H](C)CC)[C@@H](C)CC)C(C)C)C(C)C | 35 | 27.8 | – |
| CC[C@H](C)[C@H](NC(=O)CNC(=O)[C@H](CO)NC(=O)[C@@H](NC(=O)[C@H](CC(=O)O)NC(C)=O)[C@@H](C)CC)C(=O)N[C@@H](CC(N)=O)C(=O)N[C@@H](C)C(=O)N[C@@H](CO)C(=O)N[C@H](C(=O)N[C@H](C(=O)N[C@@H](CC(N)=O)C(=O)N[C@H](C(=O)N[C@@H](CCC(N)=O)C(=O)N[C@@H](CCCCN)C(=O)N[C@@]1(C)CCC/C=C\CCC[C@@](C)(C(=O)N[C@@H](CC(N)=O)C(=O)N[C@@H](CCC(=O)O)C(=O)N[C@H](C(=O)N[C@@H](C)C(=O)N[C@@H](CCCCN)C(=O)N[C@@H](CC(N)=O)C(=O)N[C@@H](CC(C)C)C(=O)N[C@@H](CC(N)=O)C(=O)N[C@@H](CCC(=O)O)C(=O)N[C@@H](CO)C(=O)N[C@@H](CC(C)C)C(=O)N[C@H](C(=O)N[C@@H](CC(=O)O)C(=O)N[C@@H](CC(C)C)C(=O)N[C@@H](CCC(N)=O)C(=O)N[C@@H](CCC(=O)O)C(=O)N[C@@H](CC(C)C)C(N)=O)[C@@H](C)CC)C(C)C)NC(=O)[C@H](CCCNC(=N)N)NC(=O)[C@H](CC(=O)O)NC(=O)[C@H]([C@@H](C)CC)NC1=O)[C@@H](C)CC)C(C)C)C(C)C | 32 | 39.8 | – |
| CC[C@H](C)[C@H](NC(=O)CNC(=O)[C@H](CO)NC(=O)[C@@H](NC(=O)[C@H](CC(=O)O)NC(C)=O)[C@@H](C)CC)C(=O)N[C@@H](CC(N)=O)C(=O)N[C@@H](C)C(=O)N[C@@H](CO)C(=O)N[C@H](C(=O)N[C@H](C(=O)N[C@@H](CC(N)=O)C(=O)N[C@H](C(=O)N[C@@H](CCC(N)=O)C(=O)N[C@@H](CCCCN)C(=O)N[C@@H](CCC(=O)O)C(=O)N[C@H](C(=O)N[C@@H](CC(=O)O)C(=O)N[C@@H](CCCNC(=N)N)C(=O)N[C@@]1(C)CCC/C=C\CCC[C@@](C)(C(=O)N[C@@H](CCCCN)C(=O)N[C@@H](CC(N)=O)C(=O)N[C@@H](CC(C)C)C(=O)N[C@@H](CC(N)=O)C(=O)N[C@@H](CCC(=O)O)C(=O)N[C@@H](CO)C(=O)N[C@@H](CC(C)C)C(=O)N[C@H](C(=O)N[C@@H](CC(=O)O)C(=O)N[C@@H](CC(C)C)C(=O)N[C@@H](CCC(N)=O)C(=O)N[C@@H](CCC(=O)O)C(=O)N[C@@H](CC(C)C)C(N)=O)[C@@H](C)CC)NC(=O)[C@H](C(C)C)NC(=O)[C@H](CCC(=O)O)NC(=O)[C@H](CC(N)=O)NC1=O)[C@@H](C)CC)[C@@H](C)CC)C(C)C)C(C)C | 33.5 | 25.1 | – |
